The text below walks through data of US11377464B2, “Galactoside inhibitor of galectins” (Galecto Biotech AB, priority 2015, dated 2022).

One assay addresses galectin-3 (Homo sapiens (Human), UniProt P17931). The assay is described as follows: Fluorescence anisotropy assay: compound as inhibitor of the interaction between galectin and a fluorescein tagged saccharide probe. Type of assay: binding. Particulars: 50 nM galectin-3, 100 nM albumin for high affinity compounds. Here is the method:
100 nM albumin was included as a carrier to prevent protein loss at such low concentration of galectin.
For orientation: In fluorescence polarisation assays a small probe gives low polarisation when free and higher when bound to something large.

The next assay has as its system galectins. Conditions: cited from earlier work.

Sequence of galectin-3 (P17931 whole entry): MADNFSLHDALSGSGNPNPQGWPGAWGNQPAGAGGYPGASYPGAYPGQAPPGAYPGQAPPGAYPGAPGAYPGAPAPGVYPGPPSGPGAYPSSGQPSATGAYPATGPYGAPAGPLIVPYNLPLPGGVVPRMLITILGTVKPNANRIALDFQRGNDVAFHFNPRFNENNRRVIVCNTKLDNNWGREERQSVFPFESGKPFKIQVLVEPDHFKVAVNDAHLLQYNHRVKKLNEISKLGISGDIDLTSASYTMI

What is called Kd is a measure of binding affinity in units of concentration. Low values mean a tighter complex, high ones a looser complex. As to `O=C(NCC(F)(F)F)c1cn([C@@H]2C(O)[C@@H](Sc3ccc(Cl)c(Cl)c3)OC(CO)[C@@H]2O)nn1` (stereo in doubt) [Example 98], at galectin-3, binding was put at a Kd of 560 nM. On to `O=C[C@H](O)[C@@H](O)[C@@H](O)[C@H](O)CO` [D-galactose, D-(+)-galactose], for which the “affinity relative to lactose” value in the assay on galectins is 50-100 times lower.
